Experimental data taken from patent publication US20160083391A1, “TRICYCLIC PIPERAZINE DERIVATIVE” (Sunovion Pharmaceuticals Inc., priority 2014, published 2016).

Test system: PDE1
Test: In vitro HTRF PDE1 inhibition assay
Type: biochemical
Conditions: HTRF cGMP assay, 100 nM cyclic GMP, PDE (1A3, 1B or 1C) with calmodulin, 45 minutes at 37° C.; isoform of the tabulated values not stated
How it was run: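 Activities are given as IC50 bands (<1, 1-10, >10 μM) derived from a 665/615 nm time-resolved FRET readout after d2-cGMP/anti-cGMP cryptate detection. Enzymes PDE1A3, 1B or 1C plus calmodulin were incubated 45 min at 37 °C with 100 nM cGMP, 1% DMSO, CaCl2/MgCl2 Tris buffer pH 7.4.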

Row | Structure (SMILES) | IC50 [nM]
1 | CC(C)c1n[nH]c2c(=O)n3c(nc12)C(C)NCC3 (racemic) [Compound I-11, (±)-3-Isopropyl-5-methyl-5,6,7,8-tetrahydropyrazino[1,2-a]pyrazolo[4,3-d]pyrimidin-10(1H)-one] | > 10000
2 | CCC1Cn2c(nc3c(cnn3C(C)C)c2=O)CN1Cc1ccc(Cl)cc1 (racemic) [Compound I-154, (±)-8-(4-Chlorobenzyl)-7-ethyl-1-isopropyl-6,7,8,9-tetrahydropyrazino[1,2-a]pyrazolo[3,4-d]pyrimidin-4(1H)-one] | 1000 to 10000
3 | CC1Cn2c(nc3c(cnn3C(C)C)c2=O)CN1c1ccc(Cl)cc1 (racemic) [Compound I-150, (±)-8-(4-Chlorophenyl)-1-isopropyl-7-methyl-6,7,8,9-tetrahydropyrazino[1,2-a]pyrazolo[3,4-d]pyrimidin-4(1H)-one] | 1000 to 10000
4 | CC(C)n1ncc2c(=O)n3c(nc21)C(c1ccccc1)N(C)CC3 (racemic) [Compound I-60, (±)-1-Isopropyl-8-methyl-9-phenyl-6,7,8,9-tetrahydropyrazino[1,2-a]pyrazolo[3,4-d]pyrimidin-4(1H)-one] | > 10000
5 | Cn1ncc2c(=O)n3c(nc21)C(Cc1ccccc1)N(Cc1ccccc1)CC3 (racemic) [Compound I-35, (±)-8,9-Dibenzyl-1-methyl-6,7,8,9-tetrahydropyrazino[1,2-a]pyrazolo[3,4-d]pyrimidin-4(1H)-one] | > 10000
6 | CC(C)n1ncc2c(=O)n3c(nc21)CN(Cc1ccc(-c2ccccc2)cc1)CC3 [Compound I-66, 8-([1,1′-Biphenyl]-4-ylmethyl)-1-isopropyl-6,7,8,9-tetrahydropyrazino[1,2-a]pyrazolo[3,4-d]pyrimidin-4(1H)-one] | 1000 to 10000
7 | CC1CN(Cc2ccccc2)Cc2nc3c(cnn3C3CCCC3)c(=O)n21 (racemic) [Compound I-101, (±)-8-Benzyl-1-cyclopentyl-6-methyl-6,7,8,9-tetrahydropyrazino[1,2-a]pyrazolo[3,4-d]pyrimidin-4(1H)-one] | 1000 to 10000
8 | CC(C)CC1Cn2c(nc3c(cnn3C(C)C)c2=O)CN1c1ccc(Cl)cc1 (racemic) [Compound I-172, (±)-8-(4-Chlorophenyl)-7-isobutyl-1-isopropyl-6,7,8,9-tetrahydropyrazino[1,2-a]pyrazolo[3,4-d]pyrimidin-4(1H)-one] | < 1000
9 | COc1cccc(N2Cc3nc4c(cnn4C(C)C)c(=O)n3CC2C)c1 (racemic) [Compound I-151, (±)-1-Isopropyl-8-(3-methoxyphenyl)-7-methyl-6,7,8,9-tetrahydropyrazino[1,2-a]pyrazolo[3,4-d]pyrimidin-4(1H)-one] | < 1000
10 | COc1ccc(CN2Cc3nc4c(cnn4C4CCCC4)c(=O)n3CC2C)cc1 (racemic) [Compound I-120, (±)-1-Cyclopentyl-8-(4-methoxybenzyl)-7-methyl-6,7,8,9-tetrahydropyrazino[1,2-a]pyrazolo[3,4-d]pyrimidin-4(1H)-one] | < 1000
11 | CC(C)n1ncc2c(=O)n3c(nc21)CN(c1cccnc1)CC3 [Compound I-143, 1-Isopropyl-8-(pyridin-3-yl)-6,7,8,9-tetrahydropyrazino[1,2-a]pyrazolo[3,4-d]pyrimidin-4(1H)-one] | 1000 to 10000
12 | O=c1c2cnn(C3CCCC3)c2nc2n1CCN(Cc1ccccc1Cl)C2 [Compound I-69, 8-(2-Chlorobenzyl)-1-cyclopentyl-6,7,8,9-tetrahydropyrazino[1,2-a]pyrazolo[3,4-d]pyrimidin-4(1H)-one] | < 1000
13 | CC1NCCn2c1nc1c(cnn1C(C)C)c2=O (racemic) [Compound I-4, (±)-1-Isopropyl-9-methyl-6,7,8,9-tetrahydropyrazino[1,2-a]pyrazolo[3,4-d]pyrimidin-4(1H)-one] | > 10000
14 | CCC1Cn2c(nc3c(cnn3C(C)C)c2=O)CN1c1ccc(Cl)cc1 (racemic) [Compound I-155, (±)-8-(4-Chlorophenyl)-7-ethyl-1-isopropyl-6,7,8,9-tetrahydropyrazino[1,2-a]pyrazolo[3,4-d]pyrimidin-4(1H)-one] | 1000 to 10000
15 | COc1ccccc1CN1CCn2c(nc3c(cnn3C(C)C)c2=O)C1 [Compound I-76, 1-Isopropyl-8-(2-methoxybenzyl)-6,7,8,9-tetrahydropyrazino[1,2-a]pyrazolo[3,4-d]pyrimidin-4(1H)-one] | 1000 to 10000
16 | CC(C)CN1CCn2c(nc3c(cnn3C(C)C)c2=O)C1 [Compound I-57, 8-Isobutyl-1-isopropyl-6,7,8,9-tetrahydropyrazino[1,2-a]pyrazolo[3,4-d]pyrimidin-4(1H)-one] | > 10000
17 | CC1CN(C)Cc2nc3c(cnn3C3CCCC3)c(=O)n21 (racemic) [Compound I-100, (±)-1-Cyclopentyl-6,8-dimethyl-6,7,8,9-tetrahydropyrazino[1,2-a]pyrazolo[3,4-d]pyrimidin-4(1H)-one] | > 10000
18 | COc1cc(N2Cc3nc4c(cnn4C(C)C)c(=O)n3CC2C)ccc1F (racemic) [Compound I-152, (±)-8-(4-Fluoro-3-methoxyphenyl)-1-isopropyl-7-methyl-6,7,8,9-tetrahydropyrazino[1,2-a]pyrazolo[3,4-d]pyrimidin-4(1H)-one] | < 1000

Second part, the compound after the results:

Row | IC50 [nM] | Structure (SMILES)
19 | < 1000 | Cc1ccc(CN2CCn3c(nn4c(C5CCCC5)ncc4c3=O)C2)cn1 [Compound I-189, 3-Cyclopentyl-7-((6-methylpyridin-3-yl)methyl)-8,9-dihydro-6H-imidazo[5,1-f]pyrazino[2,1-c][1,2,4]triazin-11(7H)-one]
20 | 1000 to 10000 | CC(C)Cc1nnc2c(=O)n3c(nn12)CN(Cc1ccncc1)CC3 [Compound I-228, 3-Isobutyl-7-(pyridin-4-ylmethyl)-8,9-dihydro-6H-pyrazino[2,1-c][1,2,4]triazolo[3,4-f][1,2,4]triazin-11(7H)-one]
21 | > 10000 | CC(C)c1nnc2c(=O)n3c(nn12)CN(Cc1ccccn1)CC3 [Compound I-226, 3-Isopropyl-7-(pyridin-2-ylmethyl)-8,9-dihydro-6H-pyrazino[2,1-c][1,2,4]triazolo[3,4-f][1,2,4]triazin-11(7H)-one]
22 | < 1000 | CC(C)c1ncc2c(=O)n3c(nn12)CN(Cc1ccc(Cl)cc1)CC3 [Compound I-179, 7-(4-Chlorobenzyl)-3-isopropyl-8,9-dihydro-6H-imidazo[5,1-f]pyrazino[2,1-c][1,2,4]triazin-11(7H)-one]
23 | 1000 to 10000 | CC(C)Cc1nnc2c(=O)n3c(nn12)CN(Cc1ccccn1)CC3 [Compound I-224, 3-Isobutyl-7-(pyridin-2-ylmethyl)-8,9-dihydro-6H-pyrazino[2,1-c][1,2,4]triazolo[3,4-f][1,2,4]triazin-11(7H)-one]
24 | 1000 to 10000 | O=c1c2cnn(C3CCOC3)c2nc2n1CCN(Cc1ccc(Cl)cc1)C2 (racemic) [Compound I-220, (±)-8-(4-Chlorobenzyl)-1-(tetrahydrofuran-3-yl)-6,7,8,9-tetrahydropyrazino[1,2-a]pyrazolo[3,4-d]pyrimidin-4(1H)-one]
25 | < 1000 | CC(C)c1ncc2c(=O)n3c(nn12)CN(c1ccc(Cl)cc1)CC3 [Compound I-175, 7-(4-Chlorophenyl)-3-isopropyl-8,9-dihydro-6H-imidazo[5,1-f]pyrazino[2,1-c][1,2,4]triazin-11(7H)-one]
26 | < 1000 | CC(C)n1ncc2c(=O)n3c(nc21)CN(c1ccc(Cl)cn1)CC3 [Compound I-241, 8-(5-Chloropyridin-2-yl)-1-isopropyl-6,7,8,9-tetrahydropyrazino[1,2-a]pyrazolo[3,4-d]pyrimidin-4(1H)-one]
